Article PMC10569036

Assays:
[1] = shake flask on a mixture of 185; loss from the water phase only; LC-QTOF peak areas; settings: room
[2] = shake flask on a mixture of 185; loss from the water phase only; LC-Orbitrap peak areas; settings: room

Row | SMILES | log partition 1-octanol / HPLC water, unbuffered, traces of methanol / DMSO [1] [log10] | log partition butyl acetate / HPLC water, unbuffered, traces of methanol / DMSO [1] [log10] | log partition chloroform / HPLC water, unbuffered, traces of methanol / DMSO [1] [log10] | log partition cyclohexane / HPLC water, unbuffered, traces of methanol / DMSO [1] [log10] | log partition dichloromethane / HPLC water, unbuffered, traces of methanol / DMSO [1] [log10] | log partition n-hexane / HPLC water, unbuffered, traces of methanol / DMSO [1] [log10] | log partition n-octane / HPLC water, unbuffered, traces of methanol / DMSO [1] [log10] | log partition n-undecane / HPLC water, unbuffered, traces of methanol / DMSO [1] [log10] | log partition oleylalcohol / HPLC water, unbuffered, traces of methanol / DMSO [1] [log10] | log partition toluene / HPLC water, unbuffered, traces of methanol / DMSO [1] [log10] | log partition 1-octanol / HPLC water, unbuffered, traces of methanol / DMSO [2] [log10] | log partition butyl acetate / HPLC water, unbuffered, traces of methanol / DMSO [2] [log10] | log partition chloroform / HPLC water, unbuffered, traces of methanol / DMSO [2] [log10] | log partition cyclohexane / HPLC water, unbuffered, traces of methanol / DMSO [2] [log10] | log partition dichloromethane / HPLC water, unbuffered, traces of methanol / DMSO [2] [log10] | log partition n-hexane / HPLC water, unbuffered, traces of methanol / DMSO [2] [log10] | log partition n-octane / HPLC water, unbuffered, traces of methanol / DMSO [2] [log10] | log partition n-undecane / HPLC water, unbuffered, traces of methanol / DMSO [2] [log10] | log partition oleylalcohol / HPLC water, unbuffered, traces of methanol / DMSO [2] [log10] | log partition toluene / HPLC water, unbuffered, traces of methanol / DMSO [2] [log10]
1 | Cn1cnc([N+](=O)[O-])c1Sc1ncnc2nc[nH]c12 | 0.004535 | -0.2382 | -0.4745 | -1.86 | -0.366 | -1.66 | -2.343 | -2.232 | -0.3513 | -1.048 | 0.3085 | 0.621 | 0.1897 | -1.394 | 0.2139 | -1.636 | -1.543 | -1.518 | 0.1703 | -0.3549
2 | CCCOC(=O)c1ccc(C(=O)OCCC)nc1 | 2.274 | 2.305 | 2.347 | 2.074 | 2.554 | 2.244 | 2.086 | 2.019 | 2.412 | 2.485 | 1.279 | 1.476 | 1.242 | 1.195 | 1.399 | 1.051 | 1.355 | 0.8718 | 1.396 | 1.5
3 | CCCCNS(=O)(=O)c1ccc(C)cc1 | 1.761 | 1.471 | 1.664 | 0.988 | 1.556 | 0.6036 | 0.3273 | 0.4324 | 1.505 | 1.679 | 1.509 | 1.21 | 1.689 | 0.5819 | 1.83 | 0.2985 | 0.4632 | 0.151 | 0.9177 | 1.122
4 | CCC(C)(CC)c1cc(NC(=O)c2c(OC)cccc2OC)on1 | 1.786 | 2.159 | 2.432 | 1.696 | 1.861 | 0.9529 | 1.176 | 1.012 | 2.115 | 2.04 | 2.911 | 2.863 | 1.794 | 1.372 | 2.835 | 0.9138 | 0.8981 | 0.6241 | 2.582 | 2.848
5 | CCCCOC(=O)C(C)Oc1ccc(Oc2ccc(C(F)(F)F)cn2)cc1 (centres unmarked) | 1.531 | 1.572 | 2.874 | 2.387 | 2.183 | 2.824 | 2.349 | 2.336 | 1.771 | 2.12 | 1.133 | 4.432 | 2.334 | -0.5049 | 3.927 | -1.029 | -0.5477 | -0.5963 | 1.914 | -0.7173
6 | Cc1ccc([N+](=O)[O-])cc1S(=O)(=O)O | 2.399 | 2.641 | 2.843 | 0.5479 | 2.477 | 0.3824 | 0.4393 | 0.4122 | 2.608 | 2.304 | 1.274 | 1.798 | 2.228 | 0.6608 | 2.4 | 0.3087 | 0.3589 | 0.261 | 0.9359 | 1.703
7 | Cc1cc2c3c(c1)C(c1ccccc1)=N[C@@H](NC(=O)c1ccncc1)C(=O)N3CC2 | 2.552 | 2.569 | 2.171 | 0.1916 | 2.144 | -0.2402 | -0.1186 | -0.161 | 2.273 | 2.127 | 1.331 | 2.844 | 1.438 | 0.6947 | 2.402 | -0.4559 | 0.088 | 0.07291 | 1.282 | 1.875
